Measured values reported in ChEMBL document CHEMBL1201862, “PubChem BioAssay data set” (2004).
Activity calls are given as the source filed them.

Legend:
[1] = viability loss in human Jurkat cells – cell-based, luminescence, cytotoxicity control for P. falciparum gametocyte viability project, dose response (AID 1117277); format: functional;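 also: potency reflects loss of cellular ATP meaning fewer viable cells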
[2] = viability inhibitors of stage V gametocytes – luminescence, dose response (AID 1117278); format: functional, cell-based;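 also: gametocytes exposed to compound for 24 hours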
[3] = tested on: Escherichia coli; assay: microbe, parasite or virus in culture
[4] = biological target: NAD-dependent protein deacylase sirtuin-5, mitochondrial (Homo sapiens, UniProt Q9NXA8); assay: sirtuin-5 deacylation blockers, concentration series – biochemical, fluorescence imaging, cherry-pick, set 5, dose response (AID 720591);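 also: desuccinylation of succinyl peptide AMC substrate read as fluorescence after trypsin release; potency of inhibitors that lower fluorescence and may act on trypsin instead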
[5] = tested on: Escherichia coli; assay: microbe, parasite or virus in culture; remark: listed apart in the source
[6] = blockade of melanocortin 4 receptor signaling – cell-based, plate reader, cherry pick, counter-screen for LGR2 antagonist project, dose response (AID 743444); format: functional;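 also: transfected HEK 293 cells stimulated with alpha-MSH peptide; potency of inhibitors of the alpha-MSH evoked signal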
[7] = A549 cell cytotoxicity, dose response, cytotoxicity control, plate reader, cherry-pick, antagonist series (AID 743412); format: functional, cell-based
[8] = toxicity toward HepG2 liver cells – cell-based, plate reader, cherry-pick, antagonist series, cytotoxicity control, dose response (AID 743416); format: functional
[9] = blockers of bursicon-stimulated LGR2 cAMP reporter – cell-based, HEK293, CRE-luciferase reporter, cherry pick, set 2, dose response (AID 743343); format: functional;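 also: transfected cells were stimulated with diluted bursicon conditioned medium after compound addition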
[10] = Fluorescence-based cell-based high throughput dose response assay for inhibitors of the interaction of nucleotide-binding oligomerization domain containing 2 (NOD2) and the receptor-interacting serine-threonine kinase 2 (RIPK2).; format: functional; conditions: Homo sapiens
[11] = viability loss in HEK293 cells – cell-based, plate reader, cherry-picked samples, cytotoxicity control, dose response (AID 743446); format: functional
[12] = reduced cellular PGC1a acetyl-lysine signal – cell-based, cherry-picked samples, dose response (AID 720514); format: functional;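 also: potency may reflect raised or lowered acetylation signal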
[13] = Luminescence Cell-Based Dose Retest to Confirm Inhibitors of Cancer Stem Cells. [Related pubchem assays (depositor defined):AID2717, AID2721]; format: functional; conditions: Homo sapiens
[14] = biological target: Paired box protein Pax-8 (Homo sapiens, UniProt Q06710); assay: PAX8 transcriptional activity inhibition in RMG-I – RMG-I cells, luciferase, cherry-pick, dose response (AID 687027); format: functional, cell-based;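 also: luciferase reporter driven by Pax8 target thyroperoxidase promoter measured by SteadyGlo luminescence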
[15] = general cell-killing toxicity readout – plate reader, dry powder samples, cytotoxicity control for PAX8 inhibitor project, dose response (AID 743021); format: functional, cell-based
[16] = biological target: T1, Oxysterols receptor LXR-beta (Homo sapiens, UniProt P55055); format: functional, cell-based;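 also: Cell-based luminescence dose-response assay of agonist activity at LXR, run as a confirmatory counterscreen to a daf-12 agonist screen; HEK293 cells with Gal4-LXR fusion and GAL4-driven luciferase reporter; agonist potency from rising luciferase signal of a Gal4-LXR reporter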
T1 sequence (P55055 whole entry): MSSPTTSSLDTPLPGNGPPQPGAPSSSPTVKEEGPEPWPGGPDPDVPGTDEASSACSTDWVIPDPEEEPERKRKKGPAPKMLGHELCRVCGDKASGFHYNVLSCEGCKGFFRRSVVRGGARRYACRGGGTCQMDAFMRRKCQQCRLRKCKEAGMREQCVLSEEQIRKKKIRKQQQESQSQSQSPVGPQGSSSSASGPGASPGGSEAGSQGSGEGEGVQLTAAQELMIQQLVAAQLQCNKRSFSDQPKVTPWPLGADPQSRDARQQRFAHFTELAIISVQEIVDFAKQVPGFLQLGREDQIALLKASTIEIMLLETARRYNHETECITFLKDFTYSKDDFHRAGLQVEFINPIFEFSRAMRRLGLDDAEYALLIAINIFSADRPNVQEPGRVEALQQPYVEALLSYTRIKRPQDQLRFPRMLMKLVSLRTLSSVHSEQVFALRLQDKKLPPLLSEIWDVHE

[17] = cells
[18] = viability loss in HepG2 liver cells – cell-based, ATP luminescence, cherry-pick, set 6, cytotoxicity control, dose response (AID 1053125); format: functional
[19] = cells; conditions: HEK293
[20] = OVCAR8 cell viability loss – plate reader, dry powder samples, PAX8 project, dose response (AID 743197); format: functional, cell-based; conditions: OVCAR-8
[21] = IGROV1 cell killing – plate reader, dry powder samples, PAX8 inhibitor project, dose response (AID 743043); format: functional, cell-based; conditions: IGROV-1
[22] = OVCAR-3 cell viability loss – plate reader, dry powder samples, PAX8 inhibitor project, dose response (AID 743044); format: functional, cell-based
[23] = growth inhibition of SK-MEL-5 melanoma cells – cell-based, CellTiter-Glo luminescence, dry powder, set 8, orthogonal assay for MITF inhibitor project, dose response (AID 651586); format: functional
[24] = MITF Orthogonal Assay: SK-MEL-5 CTG Assay Measured in Cell-Based System Using Plate Reader - 2084-02_Inhibitor_Dose_DryPowder_Activity_Set5.; format: functional
[25] = melanocyte viability loss, MITF-dependent cells, cell-based, plate reader, dry powder, cytotoxicity control, dose response (AID 651920); format: functional
[26] = MITF Measured in Cell-Based System Using Plate Reader - 2084-01_Inhibitor_Dose_DryPowder_Activity_Set6.; format: functional
[27] = MITF Measured in Cell-Based System Using Plate Reader - 2084-01_Inhibitor_Dose_DryPowder_Activity_Set7.; format: functional
[28] = viability loss in MITF-independent A375 cells – cell-based, CellTiter-Glo luminescence, dry powder, set 7, counter-screen for MITF inhibitor project, dose response (AID 624490); format: functional; conditions: A-375
[29] = growth inhibition of MALME3 cells – cell-based, CellTiter-Glo luminescence, dry powder, set 5, orthogonal assay for MITF inhibitor project, dose response (AID 651584); format: functional; conditions: MALME-3
[30] = cytotoxicity in MITF-independent A375 cells – cell-based, CellTiter-Glo luminescence, dry powder, set 4, counter-screen for MITF inhibitor project, dose response (AID 624364); format: functional; conditions: A-375;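 also: A375 melanoma cells are MITF independent so this is a counter screen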
[31] = cytotoxicity in MITF-independent A375 cells – cell-based, CellTiter-Glo luminescence, dry powder, set 9, counter-screen for MITF modulator project, dose response (AID 651591); format: functional; conditions: A-375
[32] = viability loss in MITF-independent A375 cells – cell-based, CellTiter-Glo luminescence, dry powder, set 6, counter-screen for MITF inhibitor project, dose response (AID 624488); format: functional; conditions: A-375
[33] = inhibitors of TRPM1-promoter reporter in SK-MEL-5 – cell-based, luciferase, dry powder, set 9, MITF inhibitor project, dose response (AID 651588); format: functional
[34] = cytotoxicity in melanoma parental cells – cell-based, CellTiter-Glo, dry powder, set 6, MITF inhibitor project, dose response (AID 624429); format: functional; conditions: SK-MEL-5
[35] = MITF Orthogonal Assay: MALME3 CTG Assay Measured in Cell-Based System Using Plate Reader - 2084-04_Inhibitor_Dose_DryPowder_Activity_Set6.; format: functional; conditions: MALME-3
[36] = inhibition of Env-driven cell fusion – HIV entry, plate reader, dry powder, dose response (AID 687023); format: functional, cell-based
[37] = toxicity to human hepatoma HepG2 cells – cell-based, cherry-picked samples, cytotoxicity control, dose response (AID 1159577); format: functional
[38] = P. falciparum Dd2 growth inhibitors, dose response, SYBR Green, cherry-picked samples (AID 1159567); format: functional, cell-based

Sequence of Paired box protein Pax-8 (Q06710 whole entry): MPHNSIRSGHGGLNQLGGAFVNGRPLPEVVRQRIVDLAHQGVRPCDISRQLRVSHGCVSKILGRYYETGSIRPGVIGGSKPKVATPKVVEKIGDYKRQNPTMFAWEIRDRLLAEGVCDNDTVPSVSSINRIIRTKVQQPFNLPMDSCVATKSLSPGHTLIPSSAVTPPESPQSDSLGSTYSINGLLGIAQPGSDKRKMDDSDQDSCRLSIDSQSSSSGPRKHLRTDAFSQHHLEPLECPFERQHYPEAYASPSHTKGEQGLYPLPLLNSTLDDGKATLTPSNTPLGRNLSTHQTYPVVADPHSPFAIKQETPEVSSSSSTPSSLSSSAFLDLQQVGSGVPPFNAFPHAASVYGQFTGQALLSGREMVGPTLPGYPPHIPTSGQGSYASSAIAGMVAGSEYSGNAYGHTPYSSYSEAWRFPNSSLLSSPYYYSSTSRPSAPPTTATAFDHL
Sequence of NAD-dependent protein deacylase sirtuin-5, mitochondrial (Q9NXA8 whole entry): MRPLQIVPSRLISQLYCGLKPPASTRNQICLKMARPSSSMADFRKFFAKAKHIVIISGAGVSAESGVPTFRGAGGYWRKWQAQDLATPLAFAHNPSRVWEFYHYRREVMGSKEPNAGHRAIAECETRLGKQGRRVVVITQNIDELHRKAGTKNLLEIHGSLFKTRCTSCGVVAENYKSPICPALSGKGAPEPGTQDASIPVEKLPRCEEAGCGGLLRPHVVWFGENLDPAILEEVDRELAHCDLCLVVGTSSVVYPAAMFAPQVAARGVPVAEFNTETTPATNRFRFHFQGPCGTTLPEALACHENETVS

CC(C)c1nc2oc3c(O)ncnc3c2c2c1CCC2
IC50 [1]: > 83.3 µM (inactive)
IC50 [2]: > 109 µM (inactive)

Nc1ccccc1SCc1cn2ccccc2n1
AC50 [3]: 7.26 µM (active)
AC50 [4]: 20.6 µM (active)
AC50 [5]: 19.9 µM (active)

COc1ccc(-c2[nH]ncc2-c2csc(C)n2)c(O)c1
IC50 [1]: > 83.3 µM (inactive)
IC50 [2]: > 109 µM (inactive)

COc1ccccc1N1CCN(C(C)C(=O)N2CC(C)OC(C)C2)CC1 (centres undefined)
AC50 [4]: > 30 µM (inactive)

O=C(Cn1ncc(Cl)c(Cl)c1=O)NC(=O)NC1CCCCC1
AC50 [6]: 26.2 µM (active)
AC50 [7]: 7.17 µM (active)
AC50 [8]: 7.9 µM (active)
AC50 [9]: 25.8 µM (active)
IC50 [10]: 3.13 µM (active)
AC50 [11]: 7.89 µM (active)
AC50 [12]: 4.83 µM (active)
AC50 [13]: 1.81 µM (active)
AC50 [14]: 2.85 µM (active)

CC(C)CN1CCN(C(=O)COC(=O)c2ccc(S(C)(=O)=O)c([N+](=O)[O-])c2)CC1
AC50 [15]: 22.7 µM (active)
AC50 [12]: 10.6 µM (active)
AC50 [14]: 13 µM (active)

NC(=O)c1c(NC(=O)c2ccccc2)sc2c1CCCC2
EC50 [16]: > 67.6 µM (inactive)
EC50 [17]: > 67.6 µM (inactive)

COc1ccc(CNC(=O)c2sc(=O)n(Cc3ccc(C)cc3)c2C)cc1OC
AC50 [18]: > 52 µM (inactive)
AC50 [19]: > 52 µM (inactive)

C[C@H]1CCCCO[C@H](CN(C)Cc2ccc(Cl)c(Cl)c2)[C@@H](C)CN([C@@H](C)CO)C(=O)c2cc(NC(=O)Nc3ccc(C(F)(F)F)cc3)ccc2O1
AC50 [20]: 50.7 µM (active)
AC50 [21]: 59 µM (active)
AC50 [22]: 23.4 µM (active)
AC50 [14]: 9.26 µM (active)

C[C@@H]1CCCCO[C@H](CN(C)Cc2ccc(Cl)c(Cl)c2)[C@@H](C)CN([C@@H](C)CO)C(=O)c2cc(NC(=O)Nc3ccc(C(F)(F)F)cc3)ccc2O1
AC50 [20]: > 70 µM (inactive)
AC50 [22]: 40 µM (active)
AC50 [14]: 4.2 µM (active)

O=C1C(NS(=O)(=O)c2cccs2)=C(c2ccccc2)C(=O)c2ccccc21
AC50 [23]: > 70 µM (inactive)
AC50 [24]: 65.9 µM (active)
AC50 [25]: > 70 µM (inactive)
AC50 [26]: 45.7 µM (active)
AC50 [27]: 39.1 µM (active)
AC50 [28]: > 70 µM (inactive)
AC50 [29]: > 70 µM (inactive)
AC50 [30]: > 70 µM (inactive)
AC50 [31]: > 70 µM (inactive)
AC50 [32]: > 70 µM (inactive)
AC50 [33]: > 70 µM (inactive)
AC50 [34]: > 70 µM (inactive)
AC50 [35]: > 70 µM (inactive)

Cc1noc(C)c1S(=O)(=O)Nc1cccc2c1O[C@@H](CN(C)Cc1ccc(C(F)(F)F)cc1)[C@@H](C)CN([C@@H](C)CO)C2=O
AC50 [36]: 53.5 µM (active)

C/C=C/c1ccc([C@@H]2[C@@H]3CN(Cc4ccc5c(c4)OCO5)C[C@H]2N3)cc1
AC50 [37]: 11.8 µM (active)
AC50 [38]: 4.09 µM (active)

CO[C@H]1CN(C)C(=O)c2cc(NC(=O)c3ccc(Oc4ccccc4)cc3)ccc2OC[C@@H](C)NC[C@@H]1C
AC50 [37]: > 39 µM (inactive)
AC50 [38]: 6.05 µM (active)
